Reference: the NIST ThermoML archive (doi:10.1016/j.jct.2009.03.007)
Numbers after ± are expanded uncertainties.

Key:
[1] = molar enthalpy of vaporization or sublimation; conditions: 298.15 K; Liquid; Calvet microcalorimetry
[2] = 298.15 K; Liquid; Calvet microcalorimetry

Row | Structure (SMILES) | molar enthalpy [1] [kcal/mol] | molar enthalpy of vaporization [2] [kcal/mol]
1 | CCOC(=O)Cc1cccs1 [ethyl 2-thiopheneacetate] | 14.8 ± 0.621 | 
2 | CCOC(=O)Cc1ccsc1 [ethyl 3-thiopheneacetate] | 15.1 ± 0.621 | 
3 | COC(=O)c1cccs1 [methyl 2-thiophenecarboxylate] |  | 13.8 ± 0.574
4 | CCOC(=O)c1cccs1 [ethyl 2-thiophenecarboxylate] |  | 13.5 ± 0.621
